Data from US20070122437A1, “Novel insecticide composition and use thereof particularly for impregnating mosquito nets, fly screens and the like” (priority 2004, published 2007).

Columns and labels:
Format in all cases: in vivo
[1] = test system: Aedes aegypti females, strain sensitive to pyrethroids; assay: WHO tube test on impregnated paper (KD effect and 24 h mortality), strain sensitive to pyrethroids
Excerpt: (§1) Determination of the LC100 usually takes place according to the standard tube test protocol defined by the World Health Organization (WHO) (6). Briefly, the tube test is composed of an observation tube and an exposure tube (the two tubes are removable) separated by a slide unit equipped with a partition making it possible to obstruct or re-establish the passage between the two tubes. The other end of each tube is sealed by a ventilation plug equipped with a mesh screen. Each tube is lined, for the purposes of the tests, with Whatman paper (standard qualitative filter paper ref 1002 917 or else Whatman N°1) held on the edges by two metal rings. The exposure tube receives paper impregnated with insecticide (impregnated surface on the inside) while the observation tube receives non-impregnated (neutral) paper. In order to impregnate the papers in a homogeneous fashion and to the saturation limit, 2 ml of solution constituted by 0.66 ml of silicone and 1.34 ml of acetone solution are used. For an impregnation at X mg/m^2, the quantity of active ingredient to be deposited on the paper (12 cm×15 cm i.e. 0.018 m^2) is 0.018.X mg of active ingredient (quantity to be adjusted as a function of the degree of purity of the technical product). This quantity of active ingredient is then diluted in 1.34 ml of acetone solution to which 0.66 ml of silicone is then added. The paper dries at ambient temperature, in the dark for 12 hours before the start of the test. The concentrations are expressed in % of active ingredient relative to the volume of silicone on the paper (as the acetone is volatile).
In order to evaluate the mortality and the KD effect, 25 Ae. aegypti females which are not gorged and are from 2 to 5 days old are introduced into the exposure tube and are left in contact for one hour at 27° C.±2 and 80%±10 humidity. The number of mosquitoes which have fallen to the bottom of the tube is noted every 10 minutes. After 60 minutes, the mosquitoes are transferred into the observation tube, with sugared juice and placed in an incubator at 27° C.±2 and 80% ±10 humidity. The mortality is noted at 24 hours. The time at which 50% of the females are knocked-down (KDT50) as well as its confidence interval are determined using a log-probit analysis (7). Four tubes are tested per solution and each test is repeated three times (triple test method).
The tarsal contact tests were implemented using filter paper (standard qualitative filter paper ref 1002 917 or else Whatman N° 1) impregnated with technical quality products according to the recommendations of the World Health Organization (WHO, 6). The filter papers were treated using solutions of insecticide and/or insect repellent diluted in acetone with silicone oil as support. The impregnation of the paper was carried out with 2 ml of the solutions to be tested, then the paper was dried for 12 h. The mortality and the KD effect resulting from the tarsal contacts with treated filter paper were measured using the adult mosquito test tubes of the WHO. The concentrations were expressed in weight of active ingredient relative to the surface of treated filter paper surface. Batches of 25 Ae. aegypti females which have not fed on blood, from 2 to 5 days old, were introduced into holding tubes and kept for 1 h (adaptation time) at 27±2° C. and 80±10% humidity. The mosquitoes were then transferred into the exposure tube and placed under dimmed light for 1 h. For the purpose of comparison with pyrethroids, which are rapid action insecticides, the number of mosquitoes knocked down at the bottom of the tubes was counted at regular intervals of 10 min. The time at which 50% of the mosquitoes are knocked down (KDT50) and its confidence interval at 95% were then determined using the log-probit method (7). The mortality was recorded after 24 hours of exposure. Each concentration was tested four times and each test was repeated three times with different groups of insects in order to consider inter-batch variability. […]

[2] = test system: Aedes aegypti females, a strain resistant to pyrethroids (homozygous for the kdr gene); assay: WHO tube test on impregnated paper (KD effect and 24 h mortality), strain resistant to pyrethroids
Excerpt: as §1, with “The concentrations are expressed in % of active ingredient relative to the volume of silicone on the paper (as the acetone is volatile).” left out
The tarsal contact tests were implemented using filter paper (standard qualitative filter paper ref 1002 917 or else Whatman N° 1) impregnated with technical quality products according to the recommendations of the World Health Organization (WHO, 6). […] The mortality and the KD effect resulting from the tarsal contacts with treated filter paper were measured using the adult mosquito test tubes of the WHO. […] For the purpose of comparison with pyrethroids, which are rapid action insecticides, the number of mosquitoes knocked down at the bottom of the tubes was counted at regular intervals of 10 min. […]

[3] = test system: Aedes aegypti females, a strain resistant to pyrethroids (homozygous for the kdr gene); assay: Irritability test (time for first take-off in cone on impregnated paper), strain resistant to pyrethroids; conditions: 5.1 mg/m^2
Excerpt: In order to evaluate the irritant effect or irritability, an Ae. aegypti female which is not gorged and is from 2 to 5 days old is introduced into a polyethylene cone the bottom of which is an impregnated paper. After an adaptation time of 60 seconds, the time for first take-off is noted and recorded as time for First Take-off (or FT). After 256 seconds, if the mosquito has not taken off, the test is stopped. For each test, the flying activity of 50 females is noted, and each test is repeated three times. The females are sorted into classes according to their time for first take-off and the cumulative first take-off frequencies are used in order to calculate the time at which 50% of the females have taken off (FT50). All the tests take place under controlled conditions, at 27° C.±2 and 80% ±10 humidity. […]
(§2) The irritability tests were carried out (a female in a cone in contact with the impregnated surface, reading of the time for first take-off after the Ist minute has passed, 50 females per test) according to the following protocol.
Ae. aegypti females which have not fed on blood, from 2 to 5 days old, were introduced individually into plastic cones applied to treated filter papers. […] The time at which 50% of the mosquitoes have left the treated surface (median first take-off time, FT50) and its confidence interval at 95% were then determined using the log-probit method. […]

[4] = test system: Aedes aegypti females, strain sensitive to pyrethroids; assay: Irritability test (time for first take-off in cone on impregnated paper), strain sensitive to pyrethroids
Excerpt: In order to evaluate the irritant effect or irritability, an Ae. aegypti female which is not gorged and is from 2 to 5 days old is introduced into a polyethylene cone the bottom of which is an impregnated paper. After an adaptation time of 60 seconds, the time for first take-off is noted and recorded as time for First Take-off (or FT). After 256 seconds, if the mosquito has not taken off, the test is stopped. For each test, the flying activity of 50 females is noted, and each test is repeated three times. The females are sorted into classes according to their time for first take-off and the cumulative first take-off frequencies are used in order to calculate the time at which 50% of the females have taken off (FT50). All the tests take place under controlled conditions, at 27° C.±2 and 80% ±10 humidity.
as §2
Ae. aegypti females which have not fed on blood, from 2 to 5 days old, were introduced individually into plastic cones applied to treated filter papers. After an adaptation time of exactly 60 seconds, the time which has passed between the first landing and the next take-off was defined as being <<the first take-off time>> (FT). The observation was not extended for the rare mosquitoes which had not taken off after 256 seconds. For each test, 50 mosquitoes were tested individually. A simple computer program using the internal clock of a laptop computer was used in order to carry out this test and in order to analyze the results grouping the mosquitoes into classes for time of first take-off. The time at which 50% of the mosquitoes have left the treated surface (median first take-off time, FT50) and its confidence interval at 95% were then determined using the log-probit method.

[5] = sensitive strain, impregnated paper

CC1(C)[C@H](C(=O)O[C@H](C#N)c2cccc(Oc3ccccc3)c2)[C@@H]1C=C(Br)Br [deltamethrin]
mortality at 0.728 mg/m2 ([1]; Aedes aegypti, 0.728 mg/m^2, 1 h contact, read after 24 h, sensitive strain): 34%
mortality at 5.1 mg/m2 ([1]; Aedes aegypti, 5.1 mg/m^2, 1 h contact, read after 24 h, sensitive strain): 100%
LC100 [1, 5]: 5.1 mg/m^2
lethal concentration 30 (LC30) [1, 5]: 0.728 mg/m^2
mortality at 5.1 mg/m2 ([2]; 5.1 mg/m^2, 1 h contact, read after 24 h, resistant strain): 8%
Irritability FT50 [3]: 34.98 s
Irritability FT50 ([4]; 0.728 mg/m^2 (LC30)): 23.9 s
Irritability FT50 ([4]; 5.1 mg/m^2 (LC100)): 16.9 s

CNC(=O)Oc1ccccc1OC(C)C [Propoxur, 2-isopropyloxyphenolmethylcarbamate]
mortality at 7.28 mg/m2 ([1]; Aedes aegypti): 34%
lethal concentration 30 (LC30) [1, 5]: 7.28 mg/m^2
mortality at 3.64 mg/m2 [2]: 34.5%
Irritability FT50 ([4]; 7.28 mg/m^2 on impregnated paper): 133.9 s

CCN(CC)C(=O)c1cccc(C)c1 [DEET, N,N-diethyl-meta-toluamide]
mortality at 364 mg/m2 ([1]; Aedes aegypti, 364 mg/m^2, 1 h contact, read after 24 h, sensitive strain): 0%
insecticide effect (in words) ([1]; DEET alone, 364 mg/m^2): does not itself have any insecticide effect
mortality at 364 mg/m2 ([2]; 364 mg/m^2, 1 h contact, read after 24 h, resistant strain): 0%
Irritability FT50 ([4]; 364 mg/m^2 on impregnated paper): 24.2 s
